Assay results as given in US20260324697A1, “MATERIALS AND METHODS FOR MASKING BITTERNESS” (UNIVERSITY OF FLORIDA RESEARCH FOUNDATION, INCORPORATED, priority 2023, published 2026).
Counter-ions that a name gives are not always drawn.

Key:
Assay type in all cases: in vivo, persons (trained panelists)
[1] = Sensory panel testing of bitterness reduction of 6 ppm quinine solutions; conditions: for Panel Score (0-15), bitterness: 0: no bitterness, 15: very bitter
From the text: (§1) Sensory testing was used to identify extracts that provide bitterness reduction and to evaluate the degree of bitterness reduction provided by specific compounds. In general, bitterness sensory testing involved providing test solutions to trained panelists who rated the perceived bitterness of test solutions. Panels consisted of three persons who can taste phenylthiocarbamide (PTC) test paper, and panelists were selected based on their ability to discriminate differences in the concentrations of bitterness. Panelists swirled an aliquot of a solution in the mouth for 15 seconds, spit out the test solution, and rated the perceived bitterness intensity of the solution on a scale of 0 to 15 (0: no bitterness, 15: very bitter). Panelists drank water after each test solution evaluation to remove the bitterness before evaluating the next solution.
(§2) Panel testing results can be used to quantify perceived changes in bitterness. The change in perceived bitterness of an ingestible composition following addition of a bitter-masking agent is defined herein as the percent change in the bitterness panel test rating of a composition to which a bitter-masking agent has been added compared to the bitterness panel test rating of the otherwise identical composition without the bitter-masking agent. For instance, if a composition is given a bitterness intensity rating of 8, and the same composition with addition of an amount of bitter-masking agent is given a bitterness intensity rating of 6, then the bitter-masking agent has provided a perceived change in bitterness of 25%.
(§3) Compound 1 was evaluated by sensory panel testing. A solution of 6 ppm quinine monohydrochloride dihydrate in distilled water was used as a control solution having high bitterness, and Compound 1 was added to aliquots of the control solution to provide test solutions containing 6 ppm quinine and 25, 50, or 100 ppm of Compound 1.
Compounds 2-5 were also evaluated by sensory panel testing in the same manner as Compound 1.
Sensory panel tests were also performed to evaluate whether crude extracts from allspice would be effective at reducing bitterness. Allspice was mixed with boiling water to obtain a crude aqueous mixture, and solvent was removed from the crude aqueous mixture using rotary evaporation to obtain a crude extract. The crude extract was used without further purification. An aqueous solution containing 6 ppm quinine was used as a bitterness control solution, and the crude extract was added to aliquots of the control solution to provide test solutions containing 6 ppm quinine and 100 ppm or 1000 ppm of the crude extract. The three solutions were evaluated by a sensory panel as described above.

[2] = Sensory panel testing of bitterness reduction of 500 ppm caffeine solutions; conditions: for Panel Score (0-15), bitterness: 0: no bitterness, 15: very bitter
From the text: as §1, §2
as §3, with “testing for bitterness reduction of caffeine solutions.” for “testing.”, “500” for “6”, “caffeine” for “quinine monohydrochloride dihydrate”, “caffeine” for “quinine”

[3] = Sensory panel testing of perceived sweetness of 6 ppm sucrose solutions; conditions: for Panel Score (0-15), sweetness: 0: no sweetness, 15: very sweet
From the text: Similar panel testing was done to evaluate perceived sweetness of test solutions. Panelists swirled an aliquot of test solution in the mouth for 15 seconds, spit out the test solution, and rated the perceived sweetness intensity of the test solution on a scale of 0 to 15 (0: no sweetness, 15: very sweet). Panelists drank water after each test solution evaluation before evaluating the next test solution.
Panel testing results can be used to quantify perceived changes in sweetness in an analogous manner. The change in perceived sweetness of an ingestible composition following addition of a bitter-masking agent or other agent is defined herein as the percent change in the sweetness panel test rating of a composition to which a bitter-masking agent or other agent has been added compared to the sweetness panel test rating of the otherwise identical composition without the bitter-masking agent or other agent. For instance, if a composition is given a sweetness intensity rating of 8, and the same composition with addition of an amount of bitter-masking agent or other agent is given a sweetness intensity rating of 6, then the bitter-masking agent or other agent has provided a perceived change in sweetness of 25%.
A similar panel test was performed to assess whether the efficacy of Compound 1 at masking bitterness is derived from imparting sweetness. A solution of 6 ppm sucrose in distilled water was used as a sweetness control solution, and Compound 1 was added to three aliquots of the sweetness control solution to provide test solutions containing 6 ppm sucrose and 25, 50, or 100 ppm of Compound 1. Panelists then evaluated the sweetness intensity of each test solution.

COc1cc(C[C@@H](O)CO)ccc1O [Compound 1, (2R)-3-(4-hydroxy-3-methoxyphenyl) propane-1,2-diol]
perceived bitterness of quinine solutions ([1]; 6 ppm quinine, 25, 50, or 100 ppm Compound 1): markedly reduced the perceived bitterness of quinine solutions
Panel Score (0-15), bitterness ([1]; 25 ppm Compound 1 added to 6 ppm quinine): 5.0
Panel Score (0-15), bitterness ([1]; 50 ppm Compound 1 added to 6 ppm quinine): 3.0
Panel Score (0-15), bitterness ([1]; 100 ppm Compound 1 added to 6 ppm quinine): 0.8
Panel Score (0-15), bitterness ([2]; 25 ppm Compound 1 added to 500 ppm caffeine): 3.5
Panel Score (0-15), bitterness ([2]; 50 ppm Compound 1 added to 500 ppm caffeine): 4.0
Panel Score (0-15), bitterness ([2]; 100 ppm Compound 1 added to 500 ppm caffeine): 3.8
masking of the bitterness of caffeine solutions ([2]; 500 ppm caffeine, 25, 50, or 100 ppm Compound 1): did not significantly mask the bitterness of caffeine solutions
contribution to perceived sweetness of the test solutions ([3]; 6 ppm sucrose, 25, 50, or 100 ppm Compound 1): did not contribute to perceived sweetness of the test solutions
Panel Score (0-15), sweetness ([3]; 25 ppm Compound 1 added to 6 ppm sucrose): 7.2
Panel Score (0-15), sweetness ([3]; 50 ppm Compound 1 added to 6 ppm sucrose): 6.8
Panel Score (0-15), sweetness ([3]; 100 ppm Compound 1 added to 6 ppm sucrose): 7.2

Cn1c(=O)c2c(ncn2C)n(C)c1=O [caffeine, reference compound]
Panel Score (0-15), bitterness ([2]; 500 ppm caffeine alone (control)): 3.0

C=C[C@H]1C[N@@]2CC[C@H]1C[C@H]2[C@H](O)c1ccnc2ccc(OC)cc12 [quinine, quinine monohydrochloride dihydrate, reference compound]
Panel Score (0-15), bitterness ([1]; 6 ppm quinine alone (control), Example 2): 6.0
Panel Score (0-15), bitterness ([1]; 6 ppm quinine alone (control), Example 3): 6.0

OC[C@H]1O[C@@](CO)(O[C@H]2O[C@H](CO)[C@@H](O)[C@H](O)[C@H]2O)[C@@H](O)[C@@H]1O [sucrose, reference compound]
Panel Score (0-15), sweetness ([3]; 6 ppm sucrose alone (control)): 7.0
